The target of the experiment is T1, TgFPPS (Toxoplasma gondii, UniProt Q197X6).
T1 construct: gene FPPS; bifunctional enzyme making FPP and GGPP; enzyme assay as in Szajnman et al., 2008
T1 sequence (Q197X6 1-646): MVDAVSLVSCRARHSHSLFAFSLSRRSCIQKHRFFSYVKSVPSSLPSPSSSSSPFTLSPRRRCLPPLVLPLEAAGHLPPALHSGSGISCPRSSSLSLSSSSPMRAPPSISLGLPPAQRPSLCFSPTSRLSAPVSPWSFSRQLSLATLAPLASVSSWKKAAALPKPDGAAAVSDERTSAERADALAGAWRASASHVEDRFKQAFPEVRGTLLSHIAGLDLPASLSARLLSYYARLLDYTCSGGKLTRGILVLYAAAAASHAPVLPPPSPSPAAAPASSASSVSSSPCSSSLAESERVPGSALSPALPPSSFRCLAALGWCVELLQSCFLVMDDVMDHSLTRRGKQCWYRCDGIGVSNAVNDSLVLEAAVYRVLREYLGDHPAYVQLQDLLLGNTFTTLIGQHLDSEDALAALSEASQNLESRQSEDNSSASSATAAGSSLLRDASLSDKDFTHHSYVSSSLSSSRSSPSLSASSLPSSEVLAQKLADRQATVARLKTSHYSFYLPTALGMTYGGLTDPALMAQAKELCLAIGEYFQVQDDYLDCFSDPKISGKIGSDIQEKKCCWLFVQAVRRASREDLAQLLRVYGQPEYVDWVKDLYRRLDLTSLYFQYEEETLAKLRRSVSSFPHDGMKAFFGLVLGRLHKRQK
The experiment is described as follows: FPPS enzymatic activity assay. In kind it is biochemical. From the text: FPPS enzymatic activity assay on TgFPPS

Drawing on paper PMC6155738, “Antiparasitic Activity of Sulfur- and Fluorine-Containing Bisphosphonates against Trypanosomatids and Apicomplexan Parasites” (Molecules : A Journal of Synthetic Chemistry and Natural …, 2017), this text covers IC50 for 3 compounds.

The compound `C=C(C)CNCC(P(=O)(O)O)P(=O)(O)O` [compound 19, 1-[(2-Methylall-1-ylamino)ethyl] 1,1-bisphosphonic Acid] showed an IC50 of 183 ± 63 nM.
The value for `CC(C)=CCC/C(C)=C/CSCC(P(=O)(O)O)P(=O)(O)O` [compound 44, 1-[((E)-3,7-Dimethylocta-2,6-diene-1-thio)ethyl] 1,1-bisphosphonic Acid] was 313 ± 27 nM; that for `CCCCNCC(F)(P(=O)(O)O)P(=O)(O)O` [compound 55, 1-[(n-But-1-ylamino)ethyl]-1-fluoro-1,1-bisphosphonic Acid] was 91 ± 32 nM.
